According to patent US8106055B2, “Substituted amide compounds” (Gruenenthal GmbH, priority 2007, dated 2012):
Where two headings read alike, the source gives them in different places.

How the values were obtained:
[1] = target: T1, human bradykinin 1 receptor (B1R) (Homo sapiens, UniProt P46663); assay: Functional investigation on the human bradykinin 1 receptor (B1R), Ca2+ FLIPR assay in CHO K1 hB1R cells; type: cell-based
T1 construct: expressed in transfected cells; host or cells: CHO K1 cells
T1 sequence (P46663 1-353): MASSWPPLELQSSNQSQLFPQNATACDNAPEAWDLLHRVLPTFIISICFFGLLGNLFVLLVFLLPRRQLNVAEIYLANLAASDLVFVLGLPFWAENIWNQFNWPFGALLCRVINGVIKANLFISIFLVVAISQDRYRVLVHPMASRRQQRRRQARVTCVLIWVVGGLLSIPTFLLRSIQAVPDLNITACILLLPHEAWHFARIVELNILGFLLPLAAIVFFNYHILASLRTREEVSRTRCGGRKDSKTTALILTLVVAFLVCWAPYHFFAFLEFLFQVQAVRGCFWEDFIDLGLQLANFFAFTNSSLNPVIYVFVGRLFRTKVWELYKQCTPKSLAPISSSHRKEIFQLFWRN
Procedure, shortened: (§1)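 Stably transfected CHO K1 cells loaded with Fluo-4; FLIPR Ca2+ fluorescence peak (ex 488/em 540 nm). Compound added first (agonism vs Lys-Des-Arg9-bradykinin ≥50 nM human, Des-Arg9-bradykinin 10 μM rat), then after 10-20 min agonist at EC80; antagonism as % inhibition, IC50 from concentration series, n=2-3, N≥2.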

[2] = target: T2, bradykinin 1 receptor (B1R) of the rat (Rattus norvegicus, UniProt P97583); assay: Functional investigation on the rat bradykinin 1 receptor (B1R), Ca2+ FLIPR assay in CHO K1 rB1R cells; type: cell-based
T2 construct: expressed in transfected cells; host or cells: CHO K1 cells
T2 sequence (P97583 1-337): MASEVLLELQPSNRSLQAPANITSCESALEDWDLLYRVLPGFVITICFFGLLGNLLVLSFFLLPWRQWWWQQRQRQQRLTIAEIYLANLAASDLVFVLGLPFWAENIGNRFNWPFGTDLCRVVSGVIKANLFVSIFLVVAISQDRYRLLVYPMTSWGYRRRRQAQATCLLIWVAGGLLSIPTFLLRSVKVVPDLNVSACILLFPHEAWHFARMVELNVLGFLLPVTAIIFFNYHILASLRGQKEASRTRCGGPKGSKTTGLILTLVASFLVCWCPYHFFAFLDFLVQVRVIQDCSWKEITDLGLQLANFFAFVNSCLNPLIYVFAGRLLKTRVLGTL
Procedure, shortened: as §1

[3] = CHO-K1, B1R antagonism human, test substance 10 μM, Ca2+ FLIPR, CHO K1 hB1R cells, read-out: B1R Ant. h [10 μM] % Inhibition
[4] = CHO-K1, B1R antagonism rat, test substance 10 μM, Ca2+ FLIPR, CHO K1 rB1R cells, read-out: B1R Ant. r [10 μM] % Inhibition

| SMILES | inhibition at 10 µM [1, 3] | inhibition at 10 µM [2, 4] | inhibition at 10 µM ([1]; CHO-K1, read-out: B1R Ant. h [10 μM] % Inhibition) | inhibition at 10 µM ([2]; CHO-K1, read-out: B1R Ant. r [10 μM] % Inhibition) |
| --- | --- | --- | --- | --- |
| COc1ccc(S(=O)(=O)N2CCC(OCC(=O)NCC3CCC(C(c4cccc(F)c4)N(C)C)CC3)C2)cc1OC (stereo not drawn) [Example 184, 2-(1-(3,4-dimethoxyphenylsulfonyl)pyrrolidin-3-yloxy)-N-((4-((dimethylamino)(3-fluorophenyl)methyl)cyclohexyl)methyl)acetamide] | -29% | 38% |  |  |
| Cc1ccc(S(=O)(=O)N2CCC(OCC(=O)NCC3CCC(C(c4cccc(F)c4)N(C)C)CC3)C2)cc1 (stereo not drawn) [Example 185, N-((4-((dimethylamino)(3-fluorophenyl)methyl)cyclohexyl)methyl)-2-(1-tosylpyrrolidin-3-yloxy)acetamide] | 9% | 28% |  |  |
| CN(C)C(c1cccc(F)c1)C1CCC(CCNC(=O)COCCN(C)S(=O)(=O)c2ccc(Cl)cc2)CC1 (stereo not drawn) [Example 186, 2-(2-(4-chloro-N-methylphenylsulfonamido)ethoxy)-N-(2-(4-((dimethylamino)(3-fluorophenyl)methyl)cyclohexyl)ethyl)acetamide] | 23% | 35% |  |  |
| CN(C)C(c1cccc(F)c1)C1CCC(CNC(=O)COCCN(C)S(=O)(=O)c2c(Cl)cc(Cl)cc2Cl)CC1 (stereo not drawn) [Example 188, N-((4-((dimethylamino)(3-fluorophenyl)methyl)cyclohexyl)methyl)-2-(2-(2,4,6-trichloro-N-methylphenylsulfonamido)ethoxy)acetamide] | 102% | 13% |  |  |
| COc1cc(C)c(S(=O)(=O)N2CCC(OCC(=O)NC3CCC(C(c4cccc(F)c4)N(C)C)CC3)C2)c(C)c1C (stereo not drawn) [Example 189, N-(4-((dimethylamino)(3-fluorophenyl)methyl)cyclohexyl)-2-(1-(4-methoxy-2,3,6-trimethylphenylsulfonyl)pyrrolidin-3-yloxy)acetamide] | 47% | 16% |  |  |
| COc1ccc(S(=O)(=O)N2Cc3ccccc3CC2COCC(=O)NCCC2CCC(C(c3cccc(F)c3)N(C)C)CC2)cc1 (stereo not drawn) [Example 190, N-(2-(4-((dimethylamino) (3-fluorophenyl)methyl)cyclohexyl)ethyl)-2-((2-(4-methoxyphenylsulfonyl)-1,2,3,4-tetrahydroisoquinolin-3-yl)methoxy)acetamide] | 29% | 18% |  |  |
| COc1ccc(S(=O)(=O)N2CCCCC2COCC(=O)NCCC2CCC(C(c3cccc(F)c3)N(C)C)CC2)cc1OC (stereo not drawn) [Example 191, 2-((1-(3,4-dimethoxyphenylsulfonyl)piperidin-2-yl)methoxy)-N-(2-(4-((dimethylamino)(3-fluorophenyl)methyl)cyclohexyl)ethyl)acetamide] | -16% | -14% |  |  |
| CN(C)C(c1cccc(F)c1)C1CCC(CCNC(=O)COCCN(C)S(=O)(=O)c2cccc(C(F)(F)F)c2)CC1 (stereo not drawn) [Example 192, N-(2-(4-((dimethylamino)(3-fluorophenyl)methyl)cyclohexyl)ethyl)-2-(2-(N-methyl-3-(trifluoromethyl)phenylsulfonamido)ethoxy)acetamide] | 30% | 10% |  |  |
| COc1cc(C)c(S(=O)(=O)N(CCOCC(=O)NC2CCC(C(c3ccccc3)N(C)C)CC2)Cc2ccccc2)c(C)c1C (stereo not drawn) [Example 193, 2-(2-(N-benzyl-4-methoxy-2,3,6-trimethylphenylsulfonamido)ethoxy)-N-(4-((dimethylamino) (phenyl)methyl)cyclohexyl)acetamide] | 97% | 6% |  |  |
| CN(C)C(c1cccs1)C1CCC(NC(=O)COC2CCN(S(=O)(=O)c3ccccc3)C2)CC1 (stereo not drawn) [Example 194, N-(4-((dimethylamino)(thiophen-2-yl)methyl)cyclohexyl)-2-(1-(phenylsulfonyl)pyrrolidin-3-yloxy)acetamide] | -17% | 14% |  |  |
| CN(C)C(c1ccccc1)C1CCC(CNC(=O)COC2CCN(S(=O)(=O)c3ccccc3)C2)CC1 (stereo not drawn) [Example 195, N-((4-((dimethylamino)(phenyl)methyl)cyclohexyl)methyl)-2-(1-(phenylsulfonyl)pyrrolidin-3-yloxy)acetamide] |  |  | -13% | 24% |
| CN(C)C(c1cccc(F)c1)C1CCC(NC(=O)COCCN(C)S(=O)(=O)c2ccc(Cl)cc2)CC1 (stereo not drawn) [Example 196, 2-(2-(4-chloro-N-methylphenylsulfonamido)ethoxy)-N-(4-((dimethylamino)(3-fluorophenyl)methyl)cyclohexyl)acetamide] | 6% | 27% |  |  |
| COc1cc(C)c(S(=O)(=O)N(C)CCOCC(=O)NCCC2CCC(C(c3cccc(F)c3)N(C)C)CC2)c(C)c1 (stereo not drawn) [Example 197, N-(2-(4-((dimethylamino)(3-fluorophenyl)methyl)cyclohexyl)ethyl)-2-(2-(4-methoxy-N,2,6-trimethylphenylsulfonamido)ethoxy)acetamide] | 104% | 105% |  |  |
| COc1cc(C)c(S(=O)(=O)N2CCC(OCC(=O)NCCC3CCC(C(c4cccs4)N(C)C)CC3)C2)c(C)c1 (stereo not drawn) [Example 199, N-(2-(4-((dimethylamino)(thiophen-2-yl)methyl)cyclohexyl)ethyl)-2-(1-(4-methoxy-2,6-dimethylphenylsulfonyl)pyrrolidin-3-yloxy)acetamide] | 104% | 100% |  |  |
| COc1cc(C)c(S(=O)(=O)N2CCN(CCOCC(=O)NCCC3CCC(C(c4cccc(F)c4)N(C)C)CC3)CC2)c(C)c1C (stereo not drawn) [Example 200, N-(2-(4-((dimethylamino)(3-fluorophenyl)methyl)cyclohexyl)ethyl)-2-(2-(4-(4-methoxy-2,3,6-trimethylphenylsulfonyl)piperazin-1-yl)ethoxy)acetamide] | 73% | -3% |  |  |
